From patent US20250215460A1, “MICROBIAL […] THE CONVERSION OF CARBOHYDRATES” (Ohio State Innovation Foundation, priority 2022, published 2025) come the findings set out here.

The subject of data set [1] is C. tyrobutyricum Δcat1::adhE2. Kind of data set: Batch fermentations of glucose and xylose in bioreactors at pH 6.0 with methyl viologen. Format: cell-based, Clostridium tyrobutyricum. Here is the method:
Batch fermentations of glucose and xylose by C. tyrobutyricum Δcat1::adhE2 were studied in bioreactors at pH 6.0 in the presence of methyl viologen (MV) at various concentrations (0 μM, 200 μM, 500 μM, 1000 μM). For glucose fermentation, MV was added at 12 h after inoculation. […] The fermentation time course data are shown in FIGS. 11A-11H and the effects of MV on cell growth and fermentation kinetics are illustrated in FIG. 12. […] Similar trends were also observed with xylose as the substrate at 200 μM MV. […] The results also indicate that biomass hydrolysate sugars including glucose and xylose can be used simultaneously and converted to butanol by engineered C. tyrobutyricum expressing adhE2.

The test system of data set [2] is C. tyrobutyricum Δcat1::adhE2. Kind of data set: Batch fermentation of glucose in serum bottles with methyl viologen added. Format: cell-based, Clostridium tyrobutyricum. The source says: Artificial electron carriers such as methyl viologen, benzyl viologen and neutral red have been used in solventogenic clostridia to increase butanol production through diverting electron flow towards NADH formation accompanied by decreased hydrogen production. An artificial electron carrier, such as methyl viologen (MV) and benzyl viologen (BV), was used to inhibit hydrogen production and increase NADH pool and butanol production by C. tyrobutyricum expressing adhE2. C. tyrobutyricum Δcat1::adhE2 was cultured in Clostridia Growth Medium (CGM) containing glucose as the carbon source in serum bottles at 37° C. The medium pH was buffered at ˜5.5 with CaCO3. At 24 h after initial seeding the bottles, methyl viologen was added at various concentrations (up to 1000 μM) to study its effects on cell growth and butanol production. […] The highest butanol yield and productivity were obtained at 500 μM MV. Similar results can also be achieved with other electron carriers such as benzyl viologen and neutral red.

Turning to `C[n+]1ccc(-c2cc[n+](C)cc2)cc1` [MV, methyl viologen], the “Toxicity to cells, xylose compared to glucose” value in data set [1] (bioreactor, pH 6.0) is reported as “more toxic to cells grown on xylose”. Moreover, the “Effect on product formation with increasing MV concentration” value in data set [1] (glucose as substrate, MV 0-1000 μM added at 12 h, pH 6.0) is “butanol and lactate production increased while acetate and butyrate production decreased”. Besides, in data set [1] (xylose as substrate, 500 μM and 1000 μM MV added at 24 h, pH 6.0), the “Effect on cell growth and fermentation” value was “completely inhibited cell growth and stopped fermentation”. Moreover, in data set [1] (xylose fermentation, 500 mM and 1000 mM MV, addition delayed to 24 h), the “Effect on cell growth and fermentation (figure legend)” value was “completely inhibited cell growth and fermentation”. In data set [2] (MV up to 1000 μM added at 24 h, pH ~5.5, 37° C.), the “Effect on acetate and butanol production from glucose” value is “dramatically reduced acetate production and increased butanol production”. In addition, in data set [2] (glucose, pH ~5.5), the “MV concentration at which lactate was also produced as a byproduct” value was at least 200 µM; the “MV concentration giving the highest butanol yield and productivity” value came to 500 µM.
